# Measured values from US20250282768A1 (Janssen Pharmaceutica NV, priority 2022, published 2025).
# System: p-IKKa levels in L363 (NIK translocated multiple myeloma) cells
# Experiment: Assay 2: Effect of compounds on p-IKKa levels in L363 (NIK translocated multiple myeloma) cells
# Assay type: cell-based
# Details: Homo sapiens, L-363, 6 h, read-out: Assay 2 IC50 (nM), p-IKKa (Ser 176/180) in BAFF stimulated L363 cells with MG132, 6 h; average if tested more than once
# Method in brief: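 L363 cells incubated overnight ± 250 ng/ml BAFF, then 6 h at 37 °C with compound (0.3% DMSO) ± 10 μM MG132. Lysates assayed for p-IKKa (Ser176/180) by AlphaLISA SureFire. IC50 from sigmoidal fit of % inhibition normalized to BAFF/MG132-stimulated and unstimulated controls.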
row,Compound,IC50
1,"CN1CC[C@@](O)(c2cc(-c3cccc(-c4ccnc(Nc5ccc(-c6nncn6C)cn5)n4)n3)no2)C1=O [Example 308, (R)-3-Hydroxy-1-methyl-3-(3-(6-(2-((5-(4-methyl-4H-1,2,4-triazol-3-yl)pyridin-2-yl)amino)pyrimidin-4-yl)pyridin-2-yl)isoxazol-5-yl)pyrrolidin-2-one]",50 to 500 nM
2,"Cc1nc(-c2ccc(Nc3nccc(-c4cccc(-c5cc([C@]6(O)CCN(C)C6=O)on5)n4)n3)nc2)n(C)n1 [Example 309, (R)-3-(3-(6-(2-((5-(1,3-Dimethyl-1H-1,2,4-triazol-5-yl)pyridin-2-yl)amino)pyrimidin-4-yl)pyridin-2-yl)isoxazol-5-yl)-3-hydroxy-1-methylpyrrolidin-2-one]",> 500 nM
3,"CN1CC[C@@](O)(c2cc(-c3cccc(-c4ccnc(Nc5ncnc6c5COCC6)n4)n3)no2)C1=O [Example 310, (R)-3-(3-(6-(2-((7,8-Dihydro-5H-pyrano[4,3-d]pyrimidin-4-yl)amino)pyrimidin-4-yl)pyridin-2-yl)isoxazol-5-yl)-3-hydroxy-1-methylpyrrolidin-2-one]",> 500 nM
4,"COCn1ncc(Nc2nccc(-c3cccc(-c4cc([C@]5(O)CCN(C)C5=O)on4)n3)n2)n1 [Example 311, (R)-3-Hydroxy-3-(3-(6-(2-((2-(methoxymethyl)-2H-1,2,3-triazol-4-yl)amino)pyrimidin-4-yl)pyridin-2-yl)isoxazol-5-yl)-1-methylpyrrolidin-2-one]",< 50 nM
5,"CN1CC[C@@](O)(c2cc(-c3cccc(-c4ccnc(Nc5ccn(C6COC6)n5)n4)n3)no2)C1=O [Example 312, (R)-3-Hydroxy-1-methyl-3-(3-(6-(2-((1-(oxetan-3-yl)-1H-pyrazol-3-yl)amino)pyrimidin-4-yl)pyridin-2-yl)isoxazol-5-yl)pyrrolidin-2-one]",< 50 nM
6,"CN1CC[C@@](O)(c2cc(-c3cccc(-c4ccnc(Nc5cnc6n5CCOC6)n4)n3)no2)C1=O [Example 313, (R)-3-(3-(6-(2-((5,6-Dihydro-8H-imidazo[2,1-c][1,4]oxazin-3-yl)amino)pyrimidin-4-yl)pyridin-2-yl)isoxazol-5-yl)-3-hydroxy-1-methylpyrrolidin-2-one]",> 500 nM
7,"CN1CC[C@@](O)(c2cc(-c3cccc(-c4ccnc(Nc5cnc6n5CCOCC6)n4)n3)no2)C1=O [Example 314, (R)-3-Hydroxy-1-methyl-3-(3-(6-(2-((5,6,8,9-tetrahydroimidazo[1,2-d][1,4]oxazepin-3-yl)amino)pyrimidin-4-yl)pyridin-2-yl)isoxazol-5-yl)pyrrolidin-2-one]",> 500 nM
8,"CN1CC[C@@](O)(c2cc(-c3cccc(-c4ccnc(Nc5ncn6ccnc6n5)n4)n3)no2)C1=O [Example 315, (R)-3-Hydroxy-3-(3-(6-(2-(imidazo[1,2-a][1,3,5]triazin-2-ylamino)pyrimidin-4-yl)pyridin-2-yl)isoxazol-5-yl)-1-methylpyrrolidin-2-one]",> 500 nM
9,"CN1CC[C@@](O)(c2cc(-c3cccc(-c4ccnc(Nc5ncc(CO)cn5)n4)n3)no2)C1=O [Example 316, (R)-3-Hydroxy-3-(3-(6-(2-((5-(hydroxymethyl)pyrimidin-2-yl)amino)pyrimidin-4-yl)pyridin-2-yl)isoxazol-5-yl)-1-methylpyrrolidin-2-one]",> 500 nM
10,"COc1cccnc1Nc1nccc(-c2cccc(-c3cc([C@]4(O)CCN(C)C4=O)on3)n2)n1 [Example 317, (R)-3-Hydroxy-3-(3-(6-(2-((3-methoxypyridin-2-yl)amino)pyrimidin-4-yl)pyridin-2-yl)isoxazol-5-yl)-1-methylpyrrolidin-2-one]",> 500 nM
11,"CN1CC[C@@](O)(c2cc(-c3cccc(-c4ccnc(Nc5ncn(C)n5)n4)n3)no2)C1=O [Example 318, (R)-3-Hydroxy-1-methyl-3-(3-(6-(2-((1-methyl-1H-1,2,4-triazol-3-yl)amino)pyrimidin-4-yl)pyridin-2-yl)isoxazol-5-yl)pyrrolidin-2-one]",> 500 nM
